Assay results: patent US12459932B2, “KIF18A inhibitors” (AMGEN INC., priority 2018, dated 2025)

Biological target: T1, Recombinant human KIF18A (1-467 His-tagged) (Homo sapiens, UniProt Q8NI77)
T1 construct: Recombinant human KIF18A (1-467 His-tagged) protein; His
Test: KIF18A Enzyme Assay: microtubule-stimulated ATPase activity (ADP-Glo)
Format: biochemical
Conditions: 30 nM KIF18A, 30 μg/mL pig microtubules, ATP 75 μM (Km), ADP-Glo luminescence
Protocol: KIF18A Enzyme Assay: Microtubule-stimulated ATPase activity assay is used to measure KIF18A enzyme activity after treatment with compound. Compounds were 2-fold serially diluted in DMSO (Sigma Inc) over 22-point concentration range. […] The assay measures ADP formed from the ATPase reaction. […] Read luminescence using EnVision microplate reader with ultra-luminescence module (Perkin Elmer Inc). Concentration-response curve-fitting and IC50 determination was performed using Genedata Screener Software (Standard 15.0.1, Genedata Inc) with a four-parameter logistic regression fit model.

T1 sequence (Q8NI77 1-467): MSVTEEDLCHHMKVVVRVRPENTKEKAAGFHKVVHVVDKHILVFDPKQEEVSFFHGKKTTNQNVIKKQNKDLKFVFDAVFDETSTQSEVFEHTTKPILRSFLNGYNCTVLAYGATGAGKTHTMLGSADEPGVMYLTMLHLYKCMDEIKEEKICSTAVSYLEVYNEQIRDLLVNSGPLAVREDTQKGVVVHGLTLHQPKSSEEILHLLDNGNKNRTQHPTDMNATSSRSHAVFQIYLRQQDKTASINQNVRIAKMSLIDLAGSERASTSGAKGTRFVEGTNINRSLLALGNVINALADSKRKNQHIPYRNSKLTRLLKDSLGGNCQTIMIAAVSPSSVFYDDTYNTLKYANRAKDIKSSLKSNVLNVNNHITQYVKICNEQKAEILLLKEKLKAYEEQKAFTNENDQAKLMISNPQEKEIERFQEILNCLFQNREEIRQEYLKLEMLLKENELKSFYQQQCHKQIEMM
T1 sequence (P02550 whole entry partner): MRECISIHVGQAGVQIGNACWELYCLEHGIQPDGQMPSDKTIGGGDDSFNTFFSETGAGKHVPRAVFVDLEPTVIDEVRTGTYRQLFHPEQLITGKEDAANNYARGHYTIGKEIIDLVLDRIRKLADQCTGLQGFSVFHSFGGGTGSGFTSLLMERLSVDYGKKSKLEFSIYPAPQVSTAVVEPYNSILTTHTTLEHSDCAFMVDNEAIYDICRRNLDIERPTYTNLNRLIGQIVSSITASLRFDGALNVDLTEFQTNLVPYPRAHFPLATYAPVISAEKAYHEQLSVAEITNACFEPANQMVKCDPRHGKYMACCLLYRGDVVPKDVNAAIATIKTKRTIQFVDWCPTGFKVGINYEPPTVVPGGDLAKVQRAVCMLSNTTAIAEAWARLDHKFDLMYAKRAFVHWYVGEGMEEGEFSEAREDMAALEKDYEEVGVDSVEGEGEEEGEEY
T1 sequence (P02554 whole entry partner): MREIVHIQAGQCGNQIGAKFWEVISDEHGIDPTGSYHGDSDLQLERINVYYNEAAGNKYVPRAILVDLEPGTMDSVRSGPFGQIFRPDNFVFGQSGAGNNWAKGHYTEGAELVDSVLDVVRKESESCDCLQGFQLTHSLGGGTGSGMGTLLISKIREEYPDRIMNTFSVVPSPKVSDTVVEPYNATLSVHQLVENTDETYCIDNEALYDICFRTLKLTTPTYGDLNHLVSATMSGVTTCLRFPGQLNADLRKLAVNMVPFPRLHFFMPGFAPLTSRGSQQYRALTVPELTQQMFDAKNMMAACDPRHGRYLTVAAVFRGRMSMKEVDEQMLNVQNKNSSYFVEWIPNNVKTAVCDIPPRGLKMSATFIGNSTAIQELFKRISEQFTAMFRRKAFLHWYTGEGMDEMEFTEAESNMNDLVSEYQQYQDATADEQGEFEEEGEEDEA

Row | SMILES | IC50 [nM]
1 | C[C@@H]1CN(c2cccc(NC(=O)c3ccc(S(=O)(=O)NC(C)(C)CO)cc3N3CCC4(CC3)CC4)n2)CCO1 [Example 1-4, (R)-4-(N-(1-Hydroxy-2-methylpropan-2-yl)sulfamoyl)-N-(6-(2-methylmorpholino)pyridin-2-yl)-2-(6-azaspiro[2.5]octan-6-yl)benzamide] | 46
2 | CC(CO)NS(=O)(=O)c1ccc(C(=O)Nc2cccc(N3CCO[C@H](C)C3)n2)c(N2CCC3(CC2)CC3)c1 (stereo partly drawn) [Example 1-5, 4-(N-(1-Hydroxypropan-2-yl)sulfamoyl)-N-(6-((R)-2-methylmorpholino)pyridin-2-yl)-2-(6-azaspiro[2.5]octan-6-yl)benzamide] | 47
3 | C[C@@H]1CN(c2cccc(NC(=O)c3ccc(S(=O)(=O)NC(C)(C)C)cc3N3CCC4(CC3)CC4)n2)CCO1 [Example 1-6, (R)-4-(N-(tert-Butyl)sulfamoyl)-N-(6-(2-methylmorpholino)pyridin-2-yl)-2-(6-azaspiro[2.5]octan-6-yl)benzamide] | 51
4 | C[C@@H]1CN(c2cccc(NC(=O)c3ccc(S(=O)(=O)N4CCC4)cc3N3CCC4(CC3)CC4)n2)CCO1 [Example 1-7, (R)-4-(Azetidin-1-ylsulfonyl)-N-(6-(2-methylmorpholino)pyridin-2-yl)-2-(6-azaspiro[2.5]octan-6-yl)benzamide] | 67
5 | Cc1cc(NC(=O)c2ccc(S(=O)(=O)NC3(C)COC3)cc2N2CCC3(CC2)CC3)nc(N2CCO[C@H](C)C2)c1 [Example 1-8, (R)-N-(4-Methyl-6-(2-methylmorpholino)pyridin-2-yl)-4-(N-(3-methyloxetan-3-yl)sulfamoyl)-2-(6-azaspiro[2.5]octan-6-yl)benzamide] | 119
6 | CCC(CO)NS(=O)(=O)c1ccc(C(=O)Nc2cccc(N3CCO[C@H](C)C3)n2)c(N2CCC3(CC2)CC3)c1 (stereo partly drawn) [Example 1-9, 4-(N-(1-Hydroxybutan-2-yl)sulfamoyl)-N-(6-((R)-2-methylmorpholino)pyridin-2-yl)-2-(6-azaspiro[2.5]octan-6-yl)benzamide] | 120
7 | Cc1cc(NC(=O)c2ccc(S(=O)(=O)NC(C)(C)C)cc2N2CCC3(CC2)CC3)nc(N2CCOCC2)c1 [Example 1-10, 4-(N-(tert-Butyl)sulfamoyl)-N-(4-methyl-6-morpholinopyridin-2-yl)-2-(6-azaspiro[2.5]octan-6-yl)benzamide] | 222
8 | C[C@@H]1CN(c2cccc(NC(=O)c3ccc(S(=O)(=O)N4CC(C)(C)C4)cc3N3CCC4(CC3)CC4)n2)CCO1 [Example 1-11, (R)-4-((3,3-Dimethylazetidin-1-yl)sulfonyl)-N-(6-(2-methylmorpholino)pyridin-2-yl)-2-(6-azaspiro[2.5]octan-6-yl)benzamide] | 566
9 | C[C@@H]1CN(c2cccc(NC(=O)c3ccc(S(=O)(=O)N4CC(C)(C#N)C4)cc3N3CCC4(CC3)CC4)n2)CCO1 [Example 1-12, (R)-4-((3-Cyano-3-methylazetidin-1-yl)sulfonyl)-N-(6-(2-methylmorpholino)pyridin-2-yl)-2-(6-azaspiro[2.5]octan-6-yl)benzamide] | 458
10 | C[C@@H]1CN(c2cccc(NC(=O)c3ccc(S(=O)(=O)N4CC(C#N)C4)cc3N3CCC4(CC3)CC4)n2)CCO1 [Example 1-13, (R)-4-((3-Cyanoazetidin-1-yl)sulfonyl)-N-(6-(2-methylmorpholino)pyridin-2-yl)-2-(6-azaspiro[2.5]octan-6-yl)benzamide] | 209
11 | CC(C)S(=O)(=O)c1ccc(C(=O)Nc2cccc(N3CCO[C@H](C)C3)n2)c(N2CCC3(CC2)CC3)c1 [Example 2, (R)-4-(Isopropylsulfonyl)-N-(6-(2-methylmorpholino)pyridin-2-yl)-2-(6-azaspiro[2.5]octan-6-yl)benzamide] | 34
12 | C[C@@H]1CN(c2cccc(NC(=O)c3ccc(S(=O)(=O)CCO)cc3N3CCC4(CC3)CC4)n2)CCO1 [Example 2-1, (R)-4-((2-Hydroxyethyl)sulfonyl)-N-(6-(2-methylmorpholino)pyridin-2-yl)-2-(6-azaspiro[2.5]octan-6-yl)benzamide] | 32
13 | C[C@@H]1CN(c2cccc(NC(=O)c3ccc(S(=O)(=O)C(C)(C)C)cc3N3CCC4(CC3)CC4)n2)CCO1 [Example 2-2, (R)-4-(tert-Butylsulfonyl)-N-(6-(2-methylmorpholino)pyridin-2-yl)-2-(6-azaspiro[2.5]octan-6-yl)benzamide] | 78
14 | C[C@@H]1CN(c2cccc(NC(=O)c3ccc(S(=O)(=O)C4(C)COC4)cc3N3CCC4(CC3)CC4)n2)CCO1 [Example 2-3, (R)-N-(6-(2-Methylmorpholino)pyridin-2-yl)-4-((3-methyloxetan-3-yl)sulfonyl)-2-(6-azaspiro[2.5]octan-6-yl)benzamide] | 141
15 | C[C@@H]1CN(c2cccc(NC(=O)c3ccc(S(=O)(=O)C4COC4)cc3N3CCC4(CC3)CC4)n2)CCO1 [Example 2-4, (R)-N-(6-(2-Methylmorpholino)pyridin-2-yl)-4-(oxetan-3-ylsulfonyl)-2-(6-azaspiro[2.5]octan-6-yl)benzamide] | 38
16 | C[C@@H]1CN(c2cccc(NC(=O)c3ccc(S(=O)(=O)C(C)(C)CO)cc3N3CCC4(CC3)CC4)n2)CCO1 [Example 2-5, (R)-4-((1-Hydroxy-2-methylpropan-2-yl)sulfonyl)-N-(6-(2-methylmorpholino)pyridin-2-yl)-2-(6-azaspiro[2.5]octan-6-yl)benzamide] | 51
17 | C[C@@H]1CN(c2cccc(NC(=O)c3ccc(S(=O)(=O)CC(C)(C)O)cc3N3CCC4(CC3)CC4)n2)CCO1 [Example 2-6, (R)-4-((2-Hydroxy-2-methylpropyl)sulfonyl)-N-(6-(2-methylmorpholino)pyridin-2-yl)-2-(6-azaspiro[2.5]octan-6-yl)benzamide] | 110
18 | Cc1cc(NC(=O)c2ccc(S(=O)(=O)CCO)cc2N2CCC3(CC2)CC3)nc(N2CCO[C@H](C)C2)c1 [Example 2-7, (R)-4-((2-Hydroxyethyl)sulfonyl)-N-(4-methyl-6-(2-methylmorpholino)pyridin-2-yl)-2-(6-azaspiro[2.5]octan-6-yl)benzamide] | 103
19 | CC1(S(=O)(=O)Nc2ccc(C(=O)Nc3cccc(N4CCC[C@@H](O)C4)n3)c(N3CCC4(CC3)CC4)c2)CC1 [Example 3, (R)-N-(6-(3-Hydroxypiperidin-1-yl)pyridin-2-yl)-4-((1-methylcyclopropane)-1-sulfonamido)-2-(6-azaspiro[2.5]octan-6-yl)benzamide] | 46
20 | CC1(S(=O)(=O)Nc2ccc(C(=O)Nc3cccc(N4CCC[C@H](O)C4)n3)c(N3CCC4(CC3)CC4)c2)CC1 [Example 3-1, (S)-N-(6-(3-Hydroxypiperidin-1-yl)pyridin-2-yl)-4-((1-methylcyclopropane)-1-sulfonamido)-2-(6-azaspiro[2.5]octan-6-yl)benzamide] | 56
21 | CC1(O)CCN(c2cccc(NC(=O)c3ccc(NS(=O)(=O)C4(C)CC4)cc3N3CCC4(CC3)CC4)n2)C1 (stereo not shown) [Example 3-2, N-(6-(3-Hydroxy-3-methylpyrrolidin-1-yl)pyridin-2-yl)-4-((1-methylcyclopropane)-1-sulfonamido)-2-(6-azaspiro[2.5]octan-6-yl)benzamide] | 359
22 | CC(C)(C)NS(=O)(=O)c1ccc(C(=O)Nc2cccc(N3CCC[C@H](O)C3)n2)c(N2CCC3(CC2)CC3)c1 [Example 3-3, (S)-4-(N-(tert-Butyl)sulfamoyl)-N-(6-(3-hydroxypiperidin-1-yl)pyridin-2-yl)-2-(6-azaspiro[2.5]octan-6-yl)benzamide] | 96
